Assay [1] has as its system Mycobacterium tuberculosis. Put plainly: Antimycobacterial activity against INH resistant Mycobacterium tuberculosis after 72 hrs by alamar blue dye-based broth dilution assay. The assay is classed as functional.
Assay [2] can be described thus: Resistant index, ratio of MIC for INH resistant Mycobacterium tuberculosis to MIC for Mycobacterium tuberculosis H37Rv. The format is functional.

Values after ≈ are worked out from the molar mass of the structure shown.

Regarding `O=c1oc2ccccc2cc1C(c1cccs1)c1c(O)c2ccccc2oc1=O` (centres undefined), the minimum inhibitory concentration (MIC) in assay [1] turned out to be 8.34 µM (≈ 3.36 µg/mL). Further, in assay [2], the Ratio came out at 1.6.

`Cc1cc2oc(=O)c(C(c3cccs3)c3c(O)c4cc(C)c(C)cc4oc3=O)c(C)c2cc1C` (centres undefined): the MIC in assay [1] amounted to 8.34 µM (≈ 3.94 µg/mL). For the same compound, the Ratio in assay [2] came out at 1.6.

For orientation: MIC means the lowest concentration that inhibits growth of the organism. Read a low MIC as greater potency.

(Values after ChEMBL document CHEMBL4138081, “Recent developments of coumarin-containing derivatives and their anti-tubercular activity” (Eur J Med Chem, 2017).)
